#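 Briefly, cells in 96-well plates were exposed to five compound concentrations for 48 h, and endpoints were estimated by linear interpolation. GI50 = concentration required for 50% inhibition of growth.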 The source made the active and inactive calls. Rule as the data show it: active = GI50 up to about 1.1 µM and inactive = higher.
# Key:
# Test in all cases: DTP human tumour cell line panel, 48 h
# Hs-578T = test system: Hs-578T
# SF-539 = test system: SF-539
# SR = test system: SR
# PC-3 = test system: PC-3
# UACC-62 = test system: UACC-62
# SK-MEL-5 = test system: SK-MEL-5
# UACC-257 = test system: UACC-257
# RXF 393 = test system: RXF 393
# U-251 = test system: U-251
# SF-295 = test system: SF-295
# HCT-116 = test system: HCT-116
# A498 = test system: A498
# OVCAR-3 = test system: OVCAR-3
# HOP-62 = test system: HOP-62
# IGROV-1 = test system: IGROV-1
# COLO 205 = test system: COLO 205
# A549 = test system: A549
# SW-620 = test system: SW-620
# LOX IMVI = test system: LOX IMVI
# Malme-3M = test system: Malme-3M
SMILES,GI50 (Hs-578T),GI50 (SF-539),GI50 (SR),GI50 (PC-3),GI50 (UACC-62),GI50 (SK-MEL-5),GI50 (UACC-257),GI50 (RXF 393),GI50 (U-251),GI50 (SF-295),GI50 (HCT-116),GI50 (A498),GI50 (OVCAR-3),GI50 (HOP-62),GI50 (IGROV-1),GI50 (COLO 205),GI50 (A549),GI50 (SW-620),GI50 (LOX IMVI),GI50 (Malme-3M)
O=C(Cc1ccccc1CCO)NCCc1ccccc1,> 100 µM (inactive),> 100 µM (inactive),> 100 µM (inactive),> 100 µM (inactive),> 100 µM (inactive),> 100 µM (inactive),> 100 µM (inactive),> 100 µM (inactive),> 100 µM (inactive),> 100 µM (inactive),> 100 µM (inactive),> 100 µM (inactive),> 100 µM (inactive),> 100 µM (inactive),> 100 µM (inactive),> 100 µM (inactive),> 100 µM (inactive),> 100 µM (inactive),,
O=[N+]([O-])c1ccc2[nH]ncc2c1Cl,21.4 µM (inactive),36.7 µM (inactive),1.03 µM (active),29.6 µM (inactive),34.2 µM (inactive),13.3 µM (inactive),31.2 µM (inactive),42.8 µM (inactive),42.5 µM (inactive),86.3 µM (inactive),24 µM (inactive),74.6 µM (inactive),33.8 µM (inactive),50.6 µM (inactive),18 µM (inactive),13.4 µM (inactive),45 µM (inactive),31.6 µM (inactive),17.5 µM (inactive),
COc1ccc(NC(=O)C2=C(SC)C(=O)N=C2N)cc1,> 100 µM (inactive),,40.6 µM (inactive),> 100 µM (inactive),> 100 µM (inactive),> 100 µM (inactive),> 100 µM (inactive),> 100 µM (inactive),> 100 µM (inactive),> 100 µM (inactive),> 100 µM (inactive),> 100 µM (inactive),,> 100 µM (inactive),61.7 µM (inactive),> 100 µM (inactive),,> 100 µM (inactive),> 100 µM (inactive),
SC1CCCN(Cc2ccccc2)C1 (centres undefined),78.5 µM (inactive),> 100 µM (inactive),27.9 µM (inactive),57.5 µM (inactive),44.8 µM (inactive),18.5 µM (inactive),32.4 µM (inactive),> 100 µM (inactive),33.4 µM (inactive),61.1 µM (inactive),61.1 µM (inactive),65.2 µM (inactive),> 100 µM (inactive),> 100 µM (inactive),59.8 µM (inactive),17.9 µM (inactive),53.7 µM (inactive),28.2 µM (inactive),16.5 µM (inactive),
C/C(=N\Nc1nc2cccnc2s1)c1ccccn1,0.436 µM (active),0.124 µM (active),0.0335 µM (active),0.0202 µM (active),0.0586 µM (active),0.033 µM (active),< 0.01 µM (active),1.06 µM (active),< 0.0189 µM (active),0.288 µM (active),< 0.01 µM (active),> 100 µM (inactive),< 0.0169 µM (active),0.401 µM (active),< 0.0141 µM (active),< 0.01 µM (active),0.245 µM (active),< 0.0143 µM (active),,< 0.01 µM (active)
O=C(NC(Cl)(C(F)(F)F)C(F)(F)F)c1ccc(F)cc1,> 100 µM (inactive),> 100 µM (inactive),> 100 µM (inactive),> 100 µM (inactive),,> 100 µM (inactive),> 100 µM (inactive),> 100 µM (inactive),> 100 µM (inactive),> 100 µM (inactive),> 100 µM (inactive),> 100 µM (inactive),> 100 µM (inactive),> 100 µM (inactive),> 100 µM (inactive),> 100 µM (inactive),> 100 µM (inactive),> 100 µM (inactive),> 100 µM (inactive),> 100 µM (inactive)
COC(=O)CCC(=O)NC1=C(NCc2ccccc2)C(=O)c2ccccc2C1=O,> 100 µM (inactive),20.1 µM (inactive),27.9 µM (inactive),25.2 µM (inactive),17.3 µM (inactive),12.1 µM (inactive),16.6 µM (inactive),34.7 µM (inactive),28.9 µM (inactive),26.7 µM (inactive),30.3 µM (inactive),67.9 µM (inactive),3.95 µM (inactive),,17.7 µM (inactive),20.4 µM (inactive),26.2 µM (inactive),19.9 µM (inactive),21.8 µM (inactive),
CC(=O)O[C@H]1[C@H](OC(C)=O)[C@@H](CN=[N+]=[N-])OCO[C@@H]1CN=[N+]=[N-],< 0.01 µM (active),> 100 µM (inactive),> 100 µM (inactive),> 100 µM (inactive),> 100 µM (inactive),> 100 µM (inactive),> 100 µM (inactive),> 100 µM (inactive),> 100 µM (inactive),> 100 µM (inactive),> 100 µM (inactive),> 100 µM (inactive),,> 100 µM (inactive),> 100 µM (inactive),> 100 µM (inactive),> 100 µM (inactive),> 100 µM (inactive),> 100 µM (inactive),> 100 µM (inactive)
C=C(C)C1CC[C@@](C)(O)[C@H](C#N)C1 (some centres undefined),> 100 µM (inactive),> 100 µM (inactive),> 100 µM (inactive),71 µM (inactive),> 100 µM (inactive),> 100 µM (inactive),> 100 µM (inactive),> 100 µM (inactive),> 100 µM (inactive),> 100 µM (inactive),> 100 µM (inactive),> 100 µM (inactive),> 100 µM (inactive),> 100 µM (inactive),,> 100 µM (inactive),> 100 µM (inactive),> 100 µM (inactive),> 100 µM (inactive),> 100 µM (inactive)
CCc1cn2c(/C=N/N=C(N)N)c(-c3cc(C)c(Cl)cc3Cl)nc2s1,1.71 µM (inactive),1.74 µM (inactive),1.56 µM (inactive),1.56 µM (inactive),1.42 µM (inactive),1.63 µM (inactive),1.4 µM (inactive),1.74 µM (inactive),1.53 µM (inactive),0.7 µM (active),0.785 µM (active),1.77 µM (inactive),1.48 µM (inactive),,1.69 µM (inactive),1.64 µM (inactive),1.67 µM (inactive),1.64 µM (inactive),1.35 µM (inactive),1.37 µM (inactive)
COC(=O)c1cc2c(cc1Cl)Sc1nnc(Nc3ccc(C)cc3)n1S2(=O)=O,4.9 µM (inactive),1.17 µM (inactive),2.12 µM (inactive),4.85 µM (inactive),12.3 µM (inactive),13.8 µM (inactive),12.2 µM (inactive),3.94 µM (inactive),3.87 µM (inactive),10.9 µM (inactive),8.93 µM (inactive),15.2 µM (inactive),2.19 µM (inactive),8.89 µM (inactive),2.15 µM (inactive),4.84 µM (inactive),15.4 µM (inactive),,,11 µM (inactive)
O=C(NCCO)c1c(O)c2ccccc2[nH]c1=O,> 100 µM (inactive),> 100 µM (inactive),> 100 µM (inactive),> 100 µM (inactive),,> 100 µM (inactive),> 100 µM (inactive),> 100 µM (inactive),> 100 µM (inactive),> 100 µM (inactive),> 100 µM (inactive),> 100 µM (inactive),> 100 µM (inactive),> 100 µM (inactive),> 100 µM (inactive),> 100 µM (inactive),> 100 µM (inactive),> 100 µM (inactive),> 100 µM (inactive),> 100 µM (inactive)
O=C1C=CC(=O)C(N(CCO)CCO)=C1.O=C1C=CC2(O)OCCN(CCO)C2=C1,> 100 µM (inactive),,34.8 µM (inactive),> 100 µM (inactive),> 100 µM (inactive),> 100 µM (inactive),> 100 µM (inactive),> 100 µM (inactive),> 100 µM (inactive),> 100 µM (inactive),> 100 µM (inactive),> 100 µM (inactive),> 100 µM (inactive),> 100 µM (inactive),> 100 µM (inactive),> 100 µM (inactive),> 100 µM (inactive),> 100 µM (inactive),> 100 µM (inactive),> 100 µM (inactive)
Oc1ccccc1/C=N/c1ccc(-c2nc3ccccc3[nH]2)cc1,> 100 µM (inactive),> 100 µM (inactive),44.7 µM (inactive),50.5 µM (inactive),,27.8 µM (inactive),47.8 µM (inactive),29.7 µM (inactive),49.9 µM (inactive),71 µM (inactive),53.6 µM (inactive),> 100 µM (inactive),> 100 µM (inactive),> 100 µM (inactive),28.4 µM (inactive),47.2 µM (inactive),> 100 µM (inactive),90.2 µM (inactive),> 100 µM (inactive),93.3 µM (inactive)
COc1c(O)cc(/C=C/c2cc(O)cc3c2[C@@]2(C(=O)O3)c3c(O)cc(O)cc3OC2c2cccc(O)c2)cc1O (some centres undefined),72.8 µM (inactive),39.4 µM (inactive),1.57 µM (inactive),51.8 µM (inactive),30.4 µM (inactive),32 µM (inactive),> 100 µM (inactive),52.2 µM (inactive),41.4 µM (inactive),,51.6 µM (inactive),94.6 µM (inactive),54 µM (inactive),> 100 µM (inactive),16.2 µM (inactive),41.2 µM (inactive),> 100 µM (inactive),44.2 µM (inactive),43.7 µM (inactive),> 100 µM (inactive)
